In BindingDB's records for doi:10.1016/j.bmc.2013.10.018 (Baylor College of Medicine, 2014):

Legend:
[1] = target: T1, Hypoxia-inducible factor 1-alpha (Homo sapiens, UniProt Q16665); test: Inhibition of HIF-1 alpha in human MDA-MB-231 cells by Western blotting analysis in hypoxia condition
[2] = target: T2, Signal transducer and activator of transcription 3 (Homo sapiens, UniProt P40763); test: Inhibition of Stat3 phosphorylation in human OVCAR3 cells by Western blotting analysis in hypoxia condition
[3] = target: T2, Signal transducer and activator of transcription 3; test: Inhibition of Stat3 phosphorylation in human MDA-MB-468 cells by Western blotting analysis in hypoxia condition
[4] = target: T2, Signal transducer and activator of transcription 3; test: Inhibition of Stat3 phosphorylation in human PANC1 cells by Western blotting analysis in hypoxia condition
[5] = target: T1, Hypoxia-inducible factor 1-alpha; test: Inhibition of HIF-1 alpha in human OVCAR3 cells by Western blotting analysis in hypoxia condition
[6] = target: T1, Hypoxia-inducible factor 1-alpha; test: Inhibition of HIF-1 alpha in human MDA-MB-468 cells by Western blotting analysis in hypoxia condition
[7] = target: T2, Signal transducer and activator of transcription 3; test: Inhibition of Stat3 phosphorylation in human OVCAR3 cells by Western blotting analysis in normoxia condition
[8] = target: T2, Signal transducer and activator of transcription 3; test: Inhibition of Stat3 phosphorylation in human PANC1 cells by Western blotting analysis in normoxia condition
[9] = target: T1, Hypoxia-inducible factor 1-alpha; test: Inhibition of HIF-1 alpha in human PANC1 cells by Western blotting analysis in hypoxia condition
[10] = target: T2, Signal transducer and activator of transcription 3; test: Inhibition of Stat3 phosphorylation in human MDA-MB-231 cells by Western blotting analysis in hypoxia condition
[11] = target: T2, Signal transducer and activator of transcription 3; test: Inhibition of Stat3 phosphorylation in human MDA-MB-231 cells by Western blotting analysis in normoxia condition
[12] = target: T2, Signal transducer and activator of transcription 3; test: Inhibition of Stat3 phosphorylation in human MDA-MB-468 cells by Western blotting analysis in normoxia condition

T2 sequence (P40763 whole entry): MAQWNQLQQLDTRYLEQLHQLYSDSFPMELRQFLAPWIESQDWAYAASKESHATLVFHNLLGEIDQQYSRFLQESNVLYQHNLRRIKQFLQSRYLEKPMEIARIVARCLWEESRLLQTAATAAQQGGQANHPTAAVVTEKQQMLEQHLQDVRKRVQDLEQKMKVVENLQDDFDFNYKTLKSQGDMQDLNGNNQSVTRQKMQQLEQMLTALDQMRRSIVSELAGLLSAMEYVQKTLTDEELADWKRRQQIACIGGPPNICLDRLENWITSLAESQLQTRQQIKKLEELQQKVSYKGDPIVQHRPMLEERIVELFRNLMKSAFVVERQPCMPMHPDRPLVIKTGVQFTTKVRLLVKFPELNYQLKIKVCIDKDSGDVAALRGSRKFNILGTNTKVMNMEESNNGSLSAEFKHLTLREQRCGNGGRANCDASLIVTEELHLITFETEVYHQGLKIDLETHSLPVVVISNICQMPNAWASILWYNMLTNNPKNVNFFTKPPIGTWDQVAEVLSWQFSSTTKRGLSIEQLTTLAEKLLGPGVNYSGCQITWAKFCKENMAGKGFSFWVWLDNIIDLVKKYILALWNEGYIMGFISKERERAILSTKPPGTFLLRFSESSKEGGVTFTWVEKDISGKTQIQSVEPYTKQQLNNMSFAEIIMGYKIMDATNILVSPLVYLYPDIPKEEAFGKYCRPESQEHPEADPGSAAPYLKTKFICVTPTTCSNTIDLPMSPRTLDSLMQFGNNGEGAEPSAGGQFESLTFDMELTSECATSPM
T1 sequence (Q16665 whole entry): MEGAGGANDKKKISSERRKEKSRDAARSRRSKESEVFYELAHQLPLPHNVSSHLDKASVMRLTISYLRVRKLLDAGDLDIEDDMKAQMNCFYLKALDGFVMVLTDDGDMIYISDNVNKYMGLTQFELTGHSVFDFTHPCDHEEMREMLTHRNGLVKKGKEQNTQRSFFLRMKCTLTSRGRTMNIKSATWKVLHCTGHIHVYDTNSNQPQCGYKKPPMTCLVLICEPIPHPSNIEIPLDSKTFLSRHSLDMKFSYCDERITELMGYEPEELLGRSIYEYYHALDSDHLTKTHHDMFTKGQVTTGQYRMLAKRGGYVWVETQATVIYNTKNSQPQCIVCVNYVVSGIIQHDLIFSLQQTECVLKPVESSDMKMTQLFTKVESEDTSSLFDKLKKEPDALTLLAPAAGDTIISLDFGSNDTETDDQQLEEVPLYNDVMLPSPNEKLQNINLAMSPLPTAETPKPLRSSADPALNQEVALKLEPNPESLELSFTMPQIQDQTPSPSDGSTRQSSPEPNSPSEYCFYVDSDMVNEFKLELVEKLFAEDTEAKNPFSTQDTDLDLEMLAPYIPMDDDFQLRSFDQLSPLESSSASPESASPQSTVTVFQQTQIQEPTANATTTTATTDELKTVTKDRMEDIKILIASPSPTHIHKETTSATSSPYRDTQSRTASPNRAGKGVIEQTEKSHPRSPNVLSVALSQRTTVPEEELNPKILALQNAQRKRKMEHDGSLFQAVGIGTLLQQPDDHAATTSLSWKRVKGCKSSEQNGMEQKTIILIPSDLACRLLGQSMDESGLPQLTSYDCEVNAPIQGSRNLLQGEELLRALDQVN

- IC50 [1]: 3 µM
- IC50 [2]: 4.5 µM
- IC50 [3]: 4.5 µM
- IC50 [4]: 4.5 µM
- IC50 [5]: 3 µM
- IC50 [6]: 3 µM
- IC50 [7]: 4.5 µM
- IC50 [8]: 4.5 µM
- IC50 [9]: 3 µM
- IC50 [10]: 4.5 µM
- IC50 [11]: 4.5 µM
- IC50 [12]: 4.5 µM
Structure (SMILES): CN(C)CCCN1C(=O)c2ccc3c4ccc5c6c(ccc(c7ccc(c2c37)C1=O)c64)C(=O)N(CCCN(C)C)C5=O
